This is an account of results in patent US20220380347A1, “INHIBITORS OF CYSTEINE PROTEASES AND METHODS OF USE THEREOF” (Pardes Biosciences, Inc., priority 2020, published 2022).

Like-named read-outs stand apart in the source and are kept apart here.

One may read the EC50 as the concentration giving half of the maximal effect. As usually defined, the IC50 is the concentration at which inhibition is half-maximal. In general, CC50 refers to the concentration that lowers cell viability or growth by half.

The subject of one series is HCoV 229E. The series is described as follows: HCoV 229E cytopathic effect (CPE) assay, CellTiter Glo. It counts as cell-based, human coronavirus (HCov) 229E. The settings on record: protection of virus-induced CPE. In general terms: Damage to the host cells serves as the signal in cytopathic effect assays.
Series [1] has as its target COVID-19 (nCoV-2019, SARS-CoV2) Mpro (Severe acute respiratory syndrome coronavirus 2, UniProt P0DTD1). The series can be described thus: COVID-19 (nCoV-2019, SARS-CoV2) Mpro enzymatic assay. It counts as biochemical. The note with it: 25 nM Mpro, 25 μM substrate; read-out: COVID-19 Mpro IC50.
Another series concerns HCov OC43. The series can be described thus: HCoV OC43 cytopathic effect (CPE) assay, CellTiter Glo. It counts as cell-based, human coronavirus (HCov) OC43.
Series [2] has as its system cells without virus infection. The series can be described thus: Cytotoxicity in parallel to the 229E CPE assay, without virus infection, CellTiter Glo. The note with it: read-out: 229E CC50; without virus infection.
Procedure: (§1) Reagents and instruments used in this assay include luminescent cell viability assay kit CellTiter Glo (Promega) and Microplate Reader Synergy2 (BioTek).
(§2) The cytotoxicity of compounds was assessed under the same conditions, but without virus infection, in parallel. Cell viability was measured with CellTiter Glo. The antiviral activity and cytotoxicity of compounds were expressed as % Inhibition and % Viability, respectively, and calculated with formulas.
Another series addresses 229E Mpro (Human coronavirus 229E, UniProt P0C6X1). The series is described as follows: 229E Mpro enzymatic assay (standard methods, SARS-CoV2 Mpro assay given as exemplary). It counts as biochemical, human coronavirus (HCov) 229E. Put shortly:
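IC50 for 229E Mpro by standard methods; exemplary SARS-CoV-2 protocol used C-His6-tagged Mpro from E. coli, 25 nM enzyme, 25 μM substrate (Km 13.5 μM), in Tris-HCl pH 7.3, NaCl, EDTA, TCEP, 0.1% BSA. Inhibition normalised to no-compound and full-effect controls; four-parameter fit.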

The nature of series [3]: Cytotoxicity in parallel to the 229E CPE assay, without virus infection, CellTiter Glo. The note with it: 229E CC50, without virus infection. On the technique in general: ATP-based viability assays read luminescence as a measure of living cells.
Procedure: as §1, §2
Setting [4] is: Betacoronavirus 1, OC43, read-out: OC43 IC50 (uM) MEDIAN, median.

Chain of 229E Mpro (P0C6X1 2966-3267): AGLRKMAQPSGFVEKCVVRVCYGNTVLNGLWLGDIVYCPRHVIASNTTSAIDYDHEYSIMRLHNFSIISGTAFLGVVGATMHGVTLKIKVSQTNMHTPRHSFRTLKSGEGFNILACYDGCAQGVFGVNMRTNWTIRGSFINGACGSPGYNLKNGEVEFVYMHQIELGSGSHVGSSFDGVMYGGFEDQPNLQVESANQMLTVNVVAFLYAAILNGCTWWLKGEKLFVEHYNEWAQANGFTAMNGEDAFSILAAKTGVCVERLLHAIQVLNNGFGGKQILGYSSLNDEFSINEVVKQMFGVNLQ

As for `COc1cncc(C(C(=O)NC2CCCCC2)N(C(=O)[C@H]2C[C@@H](O)CN2C#N)c2ccc(C(C)(C)C)cc2)c1` (single isomer, unassigned) [679 Isomer 1], the EC50 in the series on HCoV 229E (unidentified human coronavirus) and on 229E Mpro (229E Mpro EC50) was under 2 µM each time. Besides, the IC50 (in series [1]; with HCov OC43 (setting [4])) was under 2 µM in each case. For the same molecule, the CC50 in series [2] is over 30 µM.

Turning to `COc1cncc(C(C(=O)NC2CCCCC2)N(C(=O)[C@H]2C[C@@H](O)CN2C#N)c2ccc(C(C)(C)C)cc2)c1` (single isomer, unassigned) [679 Isomer 2], the EC50 is 2 to 10 µM with HCoV 229E and under 2 µM at 229E Mpro (read-out: 229E Mpro EC50). For the same molecule, the IC50 in series [1] was 10 to 30 µM; in the series with HCov OC43 (read-out: OC43 IC50 (uM) MEDIAN, median), 2 to 10 µM. The CC50 in series [2] lay in the range of 10 to 30 µM.

Consider `CC(C)(C)c1ccc(N(C(=O)[C@H]2COCCN2C#N)C(C(=O)NC2CCCCC2)c2cccnc2)cc1` (single isomer, unassigned) [Compound 202 Isomer 2], for which the EC50 with HCoV 229E and on 229E Mpro (read-out: 229E Mpro EC50) was under 2 µM in each case. Also, the IC50 (in series [1]; with HCov OC43 (setting [4])) was under 2 µM throughout. In series [3], this molecule yielded a CC50 of over 30 µM.

As for `C[C@@H]1C[C@H](C(=O)N(c2ccc(C(C)(C)C)cc2)C(C(=O)NC2CCCCC2)c2cccnc2)N(C#N)C1` (single isomer, unassigned) [Compound 232 Isomer 2], the EC50 in the series with HCoV 229E (unidentified human coronavirus) and at 229E Mpro (229E Mpro EC50) was under 2 µM throughout. Further, the IC50 (in series [1]; with HCov OC43 (setting [4])) was 2 to 10 µM in each case. Also, in series [3], the CC50 is 10 to 30 µM.

On to `CC1(C)C[C@H](C(=O)N(c2ccc(C(C)(C)C)cc2)C(C(=O)NC2CCCCC2)c2cccnc2)N(C#N)C1` (single isomer, unassigned) [Compound 268 Isomer 2], for which the EC50 in the series on HCoV 229E (unidentified human coronavirus) and at 229E Mpro (229E Mpro EC50) was under 2 µM throughout. Further, the IC50 in series [1] is under 2 µM; in the series on HCov OC43 (setting [4]) it was 2 to 10 µM. Also, the CC50 in series [3] was 10 to 30 µM.

Regarding `CC(C)(C)c1ccc(N(C(=O)c2nsnc2Cl)C(C(=O)NC2CCCCC2)c2cccnc2)cc1` (stereo not shown) [Compound 123, N-(4-(tert-butyl)phenyl)-4-chloro-N-(2-(cyclohexylamino)-2-oxo-1-(pyridin-3-yl)ethyl)-1,2,5-thiadiazole-3-carboxamide], the EC50 with HCoV 229E (unidentified human coronavirus) and at 229E Mpro (229E Mpro EC50) was under 2 µM in each case. Moreover, the IC50 in series [1] was under 2 µM. This molecule also had a CC50 in series [3] of over 30 µM.

For the molecule `CC(C)(C)c1ccc(N(C(=O)c2nccnc2C#N)C(C(=O)NC2CCCCC2)c2cccnc2)cc1` (stereo not shown) [Compound 124, N-(4-(tert-butyl)phenyl)-3-cyano-N-(2-(cyclohexylamino)-2-oxo-1-(pyridin-3-yl)ethyl)pyrazine-2-carboxamide], the EC50 in the series with HCoV 229E (unidentified human coronavirus) and on 229E Mpro (229E Mpro EC50) was 10 to 30 µM throughout. For the same molecule, in series [1], the IC50 is over 30 µM. This molecule also had a CC50 in series [3] of over 30 µM.

As to `CC(C)(C)c1ccc(N(C(=O)C2CN(C#N)C2)C(C(=O)NC2CCCCC2)c2cccnc2)cc1` (stereo not shown) [Compound 125, N-(4-tert-butylphenyl)-1-cyano-N-[2-(cyclohexylamino)-2-oxo-1-(3-pyridyl)ethyl]azetidine-3-carboxamide], the concentration giving a half-maximal response (EC50) in the series on HCoV 229E (unidentified human coronavirus) lay within 2 to 10 µM; on 229E Mpro (229E Mpro EC50), 10 to 30 µM. The IC50 in series [1] is 10 to 30 µM. The CC50 in series [3] was 10 to 30 µM.
